The values that follow come from patent US9206432B2, “Sulfonylurea-responsive repressor proteins” (priority 2008, dated 2015).

Data set [1] deals with lacZ under control of the tetA promoter (PtetA) in E. coli KM3. The class given is cell-based. To be noted: L1 hits, SU compounds at 20 μg/ml.
For data set [2] the following is noted: pH 7; cited from earlier work.
The next data set deals with tet operator (tetO). Description: Electrophoretic gel mobility shift assay (EMSA), operator binding and release by inducer. The settings on record: ethametsulfuron repressor protein (L7A11) on TetO (FIG. 7). For orientation: Mobility shift assays separate free from complexed probe on a gel.

A word on the logP: it is a log measure of how a compound divides between an organic and an aqueous phase.

`COc1nc(C)nc(NC(=O)NS(=O)(=O)c2ccccc2Cl)n1` [chlorsulfuron, 2 chloro N ((4 methoxy 6 methy 1,3,5 triazine 2 yl)aminocarbonyl)benzenesulfonamide, reference compound]: the “potency as activator compared with Harmony®” value in data set [1] is given as “more potent activators than the starting ligand Harmony®”.
For the compound `COC(=O)c1sccc1S(=O)(=O)NC(=O)Nc1nc(C)nc(OC)n1` [Harmony®, Thifensulfuron-methyl], in data set [2], the logP was approximately 0.02.
Consider `CCOc1nc(NC)nc(NC(=O)NS(=O)(=O)c2ccccc2C(=O)OC)n1` [ethametsulfuron, Ethametsulfuron-methyl, reference compound], for which, in data set [1], the “potency as activator compared with Harmony®” value is on record as “more potent activators than the starting ligand Harmony®”. Further, the “operator release by inducer” value with tet operator (tetO) is listed as “inducer preference for operator release by Es compared to Cs”.
In the case of `Cc1c2c(c(O)c3c(O)cccc13)C(=O)[C@]1(O)C(=O)C(C(N)=O)=C(O)[C@@H](N(C)C)[C@@H]1C2` [atc, anhydrotetracycline], the “operator release by inducer” value in the data set with tet operator (tetO) is listed as “No change in operator release”.
Turning to `CCOC(=O)c1ccccc1S(=O)(=O)NC(=O)Nc1nc(Cl)cc(OC)n1` [chlorimuron, Chlorimuron-ethyl, reference compound], the “potency as activator compared with Harmony®” value in data set [1] was “more potent activators than the starting ligand Harmony®”.
